Consider 1 substance from article PMC6977461 (Chemical Science, 2019).

*1 amine or outer side, *2 acyl side, *3 side chain or, on linkers, in order; H or OH if unused. The star is where a group is joined. X1 = C[C@@H](CN*)NC(=O)[C@@H](N)Cc1c[nH]cn1; CO = O=C([*:1])[*:2]

The nature of series [1]: mouse plasma degradation assay (Methods MP1-MP3). In kind it is in vitro ADME. Conditions: mouse plasma diluted 1/1 with PBS; mouse plasma/PBS pH 7.4 (1/1), 5 µM, 37 °C, acetonitrile quench, LC-MS extracted ion chromatogram; MP1 for 2-8, MP2 for 9-11, MP3 for 12-14; mean, n = 3; read-out: Mouse plasma t1/2 (converted). Here is the method: The oligomer was then diluted 1/50 with a solution of plasma/PBS pH 7.4 (1/1) to afford a final concentration of 5μM and incubated at 37°C. […] (t = 0 min was determined using the reaction without plasma). The samples were frozen at -80°C before analysis. […] The supernatant was analyzed by LC-MS. The time course of oligomer degradation was determined by integrating the area of the peak in the extracted ion chromatogram. […] The oligomer was then diluted 1/50 with a solution of plasma/PBS pH 7.4 (1/1) to afford a final concentration of 5μM and incubated at 37°C. […] The oligomer was then diluted 1/50 with a solution of plasma/PBS pH 7.4 (1/1) to afford a final concentration of 5μM and incubated at 37°C. […] Animals. […] A standard chow diet (RM1 (E) 801492, SDS) and tap water were provided ad libitum. All animal protocols done by Physiogenex S.A.S were reviewed and approved by the local (Comité […] national ([…]

Series [2] has as its system C57BL/6J mice. The series can be described thus: dose-response study in healthy mice, IPGTT 6 h after agonist. Type of series: in vivo, mouse. Here is the method:
Mice were lightly fasted (4 hours) before IP administration of varying doses of each agonist or vehicle (100 µL saline). After a further 6 hours, blood glucose was measured (GlucoRx) from the tail followed by IP administration of 2 g/kg 20% glucose. Blood glucose was monitored at 20, 40 and 60 minute time- […]
performed on the area-under-curve for each set of data.
Study in db/db mice (15 days).
After the acclimation period of 5 days, male db/db mice 8 weeks old (Charles River laboratories) were randomized into groups (n=10) according to their body weight, HOMA-IR and HbA1C measured after an overnight fast and 8 non diabetic mice were excluded. Mice were chronically treated during 15 days via s.c. route (once daily) at around 8AM with the vehicle or with 100 µg kg-1 (25 nmol kg-1) of the oligomers. Formulation: 20 µg mL-1 in PBS 1×. On the 7th day of treatment, fed blood glucose was […]
On the 12th day of treatment, mice were fasted 6 hours and an OGTT (glucose 1 g kg-1 p.o.) was performed 6 hours (2 PM) after the dosing. Blood glucose was […]
On the 15th day of treatment, mice were fasted 6 hours and an ITT (insulin 2 U kg-1 i.p.) was performed 6 hours (2 PM) after the dosing. […]
samples were collected for measuring HbA1c just before the start of the treatments and at the end of […]
Fifteen mice (male C57BL/6J mice (Janvier Labs, France) 9 weeks old, 20-25 g) were treated with GLP-1 analogues via i.v. injections (2 mg kg-1) formulated at 1 mg mL-1 in PBS 1×. After different time points mice were sacrificed and blood sample were collected. The plasma was separated by centrifugation and the samples were frozen at -80°C before analysis. A volume of 400 µL of each sample of plasma was mixed with 1 ml of acetonitrile to precipitate the protein and extract the compound. The sample were then vortexed and centrifuged (15 000 × g, 5 min, 16 °C) to sediment the precipitated protein.
The supernatant was analysed by LC-MS/MS using a UHPLC coupled to LC-MS 8030 Shimadzu triple […]
Molecular dynamics simulation of GLP-1R in complex with ureidopeptide 3 […]
Human GLP-1R which shares […]

Series [3] relates to C57BL/6J mice. The series can be described thus: IPGTT in healthy mice 3, 6 or 9 h after i.v. dosing. Conditions: 1 µg per mouse (10 nmol kg-1) i.v., glucose 2 g kg-1 i.p., fasted 9 h, n = 6, versus vehicle. Type of series: in vivo.
Text: Supérieur et de la Recherche) ethics committees (protocol number 05049-06). For the dose-response study, animal procedures were approved by British Home Office under the UK Animal (Scientific Procedures) Act 1986 (Project Licence 70/7596). Lean male C57Bl/6J mice (6-8 weeks of age, body […]
schedule, lights on at 07:00). Ad libitum access to water and normal chow (RM1, Special Diet Services) was provided unless otherwise stated. Mice were housed in groups of five. For the pharmacokinetics studies performed by TechMedILL service (PCBIS platform, CNRS UMS3286), mice were housed in polycarbonate cages (PCT2L12SHT, Allentown) enriched with play tunnels throughout the […]
environment (22 ± 1 °C) with a relative humidity (50 ± 10 %) and a normal 12 hours light cycle (at 8:00 pm lights off). A standard chow diet (A04, SAFE, France) and tap water were provided ad libitum. […]
After the acclimation period of 5 days, 20-25 g male C57Bl/6J mice 8 weeks old (Charles River laboratories) were randomized into groups (6 mice per group) according to their body weight. The mice were acutely treated with vehicle or 1 µg per mouse (10 nmol kg-1) of oligomers via i.v. injections (formulation: 4 µg mL-1 in PBS 1×) IPGTTs (glucose 2 g kg-1 i.p.) were performed after 3 or 6 hours of […]
(§1) Blood glucose was measured before the administration of […]
as §1

[4] abbreviates: healthy C57BL/6J mice, 0.01 to 10 nmol kg-1 i.p., IPGTT 6 h after dose, 3-parameter fit of AUC, n = 8.

For “{X1-CO}-EGTFTSDLSKQLEEEAVRLFIEWLKNGGPSSGAPPSKKKKKK-NH2 [compound 14]”, the half-life at 5 µM in series [1] was 6.6 h. Further, the “improvement of ED50 versus parent peptide” value in the series with C57BL/6J mice [2] (11 versus exenatide (9), 14 versus LixiL (13)) is reported as “five-fold improvement”. Further, in the series with C57BL/6J mice [2] (setting [4]), the “ED50 (printed in Fig. 4)” value is listed as 0.47 and the ED50 in vivo is 0.46 nmol/kg. Moreover, the “blood glucose control, IPGTT 9 h after dosing” value in the series with C57BL/6J mice [3] was “strong ability to control blood glucose levels”.
